From US11407724B2, “Process for the production of cannabinoids” (Bessor Pharma, LLC, priority 2018, dated 2022)

Tested on: TRPV 1 channels
Assay: Calcium assay (Fluo-4) in HEK-TRPV1 cells, dose response comparison
Type: cell-based
Conditions: Fluo-4 loaded, 1 mM external calcium chloride, 0-20 seconds baseline, compound added at 20 seconds, synthesized vs Sigma-sourced CBD (FIGS. 1A-1D)
Method: Molecular Pharmacology, 2016, volume 90, pages 300-308) HEK 293 cells with TRPV1 channels have been used as model systems (P. Geppetti and M. Trevisani, Activation and sensitisation of the vanilloid receptor: role in gastrointestinal inflammation and function, British Journal of Pharmacology, 2004, volume 141, pages 1313-1320);
HEK TRexTRPV1 cultured in DMEM, 10% Fetal Bovine Serum, 2 mM L-glutamine, 10 microgramg/ml Blasticidin (Calbiochem, San Diego Calif.), […] Zeocin (InvivoGen, San Diego Calif.), followed by inducing indicated transgene expression using 1 microgram/ml Tetracycline for 16-24 hrs. Comparisons made to untransfected HEK cells or HEKTRexTRPV1 with or without induction.
Cells washed and incubated with 0.2 micromolar Fluo-4 [54] for 30 minutes at 37° C. in a standard modified Ringer's solution of the following composition (in mM): NaCl 145, KCl 2.8, CsCl 10, CaCl2 10, MgCl2 2, glucose 10, Hepes-NaOH 10, pH 7.4, 330 mOsm. Cells transferred to 96-well plates at 50,000 cells/well and stimulated as indicated. Calcium signals acquired using a Flexstation 3 (Molecular Devices, Sunnydale, USA). Data are analyzed according to the methods in I. Díaz-Franulic, J. Caceres-Molina, R. V. Sepulveda, F. Gonzalez-Nilo, R. Latorre, Structure-Driven Pharmacology of Transient Receptor Potential Channel Vanilloid 1, Molecular Pharmacology, 2016, volume 90, pages 300-8. […]

## C=C(C)[C@@H]1CCC(C)=C[C@H]1c1c(O)cc(CCCCC)cc1O [cannabidiol (11, CBD), Cannabidiol]
  “biological finger print” and dose response on TRPV 1 channels: the same “biological finger print” and dose response
